From ChEMBL document CHEMBL3739280, “12,17-Cyclojatrophane and Jatrophane Constituents of Euphorbia welwitschii” (J Nat Prod, 2015) come the findings set out here.

Experiment [1] is described as follows: Antiproliferative activity against human EPG85-257RDB cells after 5 days by SRB assay. In kind it is functional, cell-based. To be noted: 120 h. On the technique in general: Sulforhodamine B stains cellular protein and so reports cell mass.
Experiment [2] in a line: Resistance index, ratio IC50 for human EPG85-257RDB cells to IC50 for human EPG85-257 cells. The format is functional.
Experiment [3] can be described thus: Antiproliferative activity against human EPP85-181RN cells after 5 days by SRB assay. The note with it: 120 h. In kind it is functional, cell-based.
Experiment [4] is described as follows: Resistance index, ratio IC50 for human EPP85-181RN cells to IC50 for human EPP85-181P cells. The format is functional.
Experiment [5] in a line: Antiproliferative activity against human EPP85-181RDB cells after 5 days by SRB assay. The format is functional, cell-based. To be noted: 120 h.
Experiment [6] is described as follows: Resistance index, ratio IC50 for human EPP85-181RDB cells to IC50 for human EPP85-181P cells. In kind it is functional.

Turning to `C=C1[C@H](OC(=O)C(C)C)[C@@H](OC(=O)C(C)C)[C@@H](OC(=O)c2cccnc2)C(C)(C)[C@H](O)[C@H]2O[C@@]3(C[C@H](C)[C@H](OC(C)=O)[C@@H]3[C@H]1OC(C)=O)C(=O)[C@H]2C`, in experiment [1], the IC50 stood at 17.2 µM. For the same molecule, the “Ratio IC50” value in experiment [2] amounted to 0.6.

For `C=C1[C@H](OC(=O)C(C)C)[C@@H](OC(=O)C(C)C)[C@@H](OC(=O)c2cccnc2)C(C)(C)[C@H]2O[C@@H]2[C@@H](C)C(=O)[C@@]2(O)C[C@H](C)[C@H](OC(C)=O)[C@@H]2[C@H]1OC(C)=O`, the IC50 in experiment [1] was determined as 3.6 µM; in experiment [3], 21.3 µM; in experiment [5] it was 18.2 µM. The “Ratio IC50” value was found to be 0.1 in experiment [2], 0.7 in experiment [4] and 0.6 in experiment [6].

By IC50 is commonly meant the point on the concentration scale where inhibition reaches its midpoint. A high value points to lower potency.
